Data on 18 compounds can be found in US4329473A, “Oxoalkanoic acid derivatives as inhibitors of angiotensin converting enzyme” (priority 1980, dated 1982).

Where a SMILES comes first, the peptide text is derived from it.

One may read the IC50 as the concentration that gives 50% inhibition.

For one test, the system named is angiotensin converting enzyme.
Experiment: not given
To be noted: literature; cited from earlier work.
With `C[C@H](NC(=O)[C@@H](N)Cc1ccccc1)C(=O)N1CCC[C@H]1C(=O)O` [phenylalanyl-alanyl-proline] (H-Phe-Ala-Pro-OH), the “inhibition of the converting enzyme (in words)” value was “substantial degree of activity”.

The target of the next test is T1, porcine plasma angiotensin-converting enzyme (Sus scrofa, UniProt F1RRW5).
T1 construct: procine plasma angiotensin-converting enzyme; from tissue; host or cells: porcine plasma
T1 sequence (F1RRW5 34-1309): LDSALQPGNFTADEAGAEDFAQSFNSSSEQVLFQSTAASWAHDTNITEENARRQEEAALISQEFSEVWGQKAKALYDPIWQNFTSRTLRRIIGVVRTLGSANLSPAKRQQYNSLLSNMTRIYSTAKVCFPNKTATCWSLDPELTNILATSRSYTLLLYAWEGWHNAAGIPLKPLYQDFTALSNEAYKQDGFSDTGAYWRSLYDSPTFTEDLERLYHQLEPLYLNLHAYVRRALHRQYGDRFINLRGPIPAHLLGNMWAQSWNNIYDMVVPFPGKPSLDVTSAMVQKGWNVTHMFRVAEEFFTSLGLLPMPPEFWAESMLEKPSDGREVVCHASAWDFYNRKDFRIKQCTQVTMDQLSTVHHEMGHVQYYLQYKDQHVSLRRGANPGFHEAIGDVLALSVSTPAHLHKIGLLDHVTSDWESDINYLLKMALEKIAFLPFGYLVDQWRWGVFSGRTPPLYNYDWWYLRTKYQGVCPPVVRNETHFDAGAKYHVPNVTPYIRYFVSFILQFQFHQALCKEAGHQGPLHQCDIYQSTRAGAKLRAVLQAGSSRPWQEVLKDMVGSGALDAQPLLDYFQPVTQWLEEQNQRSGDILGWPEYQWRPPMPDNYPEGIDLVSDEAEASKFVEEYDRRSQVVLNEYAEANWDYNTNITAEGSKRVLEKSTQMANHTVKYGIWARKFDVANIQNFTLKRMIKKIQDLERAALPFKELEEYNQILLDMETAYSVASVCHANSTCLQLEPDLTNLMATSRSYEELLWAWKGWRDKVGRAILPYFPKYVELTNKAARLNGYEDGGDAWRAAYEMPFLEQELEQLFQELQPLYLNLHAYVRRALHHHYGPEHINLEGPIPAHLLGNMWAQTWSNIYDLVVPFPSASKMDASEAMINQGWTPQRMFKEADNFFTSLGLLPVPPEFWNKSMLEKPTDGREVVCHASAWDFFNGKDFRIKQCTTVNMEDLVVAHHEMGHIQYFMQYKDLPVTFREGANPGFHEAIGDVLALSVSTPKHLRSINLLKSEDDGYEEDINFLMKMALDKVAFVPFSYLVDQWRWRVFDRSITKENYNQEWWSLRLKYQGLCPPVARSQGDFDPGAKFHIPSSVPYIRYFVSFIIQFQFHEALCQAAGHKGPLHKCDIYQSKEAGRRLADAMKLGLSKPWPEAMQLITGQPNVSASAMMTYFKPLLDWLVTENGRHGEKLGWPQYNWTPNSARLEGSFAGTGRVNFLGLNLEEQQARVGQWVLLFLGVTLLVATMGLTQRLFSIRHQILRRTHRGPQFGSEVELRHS
Nature of the test: Angiotensin Converting Enzyme Inhibition Assay. Format: biochemical. The following applies: compared with Captopril / other examples, Table II. The protocol:
Said assay is described in the literature as follows: B. S. Tsai, M. J. Peach, M. C.
The Angiotensin Converting Enzyme Inhibition Assay represents a test procedure in which various compounds are tested for their ability to inhibit the conversion of the decapeptide angiotensin I or the tripeptide hippuryl-histidyl-leucine to its cleavage product, the dipeptide histidyl-leucine. This dipeptide is detected via its fluorescent condensation product with o-phthaladehyde.
For testing the effect of inhibitors on procine plasma angiotensin-converting enzyme, two assays were run in parallel. One contained the substrate (1-2 mM), enzyme (1 mg) and various concentrations (1 nM-10 mM) of an inhibitor, the other contained only the substrate and enzyme. The assays were conducted in sodium phosphate buffer, pH 7.6, under the conditions described in the article by Tsai, et al., supra.
For `CC(CC(=O)C(Cc1ccccc1)NC(=O)c1ccccc1)C(=O)N1CCC[C@H]1C(=O)O` (stereo partly drawn) [Example XIII, 5-Benzamido-4-oxo-2-methyl-6-phenylhexanoyl-L-proline], the “effectiveness in angiotensin converting enzyme inhibition assay (in words)” value was “most effective compound”.

Staying with this test, now noted: sodium phosphate buffer, pH 7.6; substrate 1-2 mM; inhibitor 1 nM-10 mM.
In turn, `O=C(NC(Cc1ccccc1)C(=O)CCC(=O)N1CCC[C@H]1C(=O)O)OCc1ccccc1` (stereo partly drawn) [Example III, 5-Benzyloxycarbonylamino-4-oxo-6-phenylhexanoyl-L-proline] yielded an IC50 of 240 nM. On the same count and under the same terms, the value for `O=C(NC(Cc1ccc(OCc2ccccc2)cc1)C(=O)CCC(=O)N1CCC[C@H]1C(=O)O)c1ccccc1` (stereo partly drawn) [Example IX, 5-Benzamido-4-oxo-6-p-benzyloxyphenylhexanoyl-L-proline] was 10 nM; that for `O=C(NC(Cc1ccccc1)C(=O)CCC(=O)N1CCC[C@H]1C(=O)O)c1ccco1` (stereo partly drawn) [Example V, 5-(2-Furoylamino)-4-oxo-6-phenylhexanoyl-L-proline] was 1.4 nM. On the same count and under the same terms, in the case of `O=C(NC(Cc1ccc(O)cc1)C(=O)CCC(=O)N1CCC[C@H]1C(=O)O)c1ccccc1` (stereo partly drawn) [Example X, 5-Benzamido-4-oxo-6-p-hydroxyphenylhexanoyl-L-proline] it was 4.7 nM; in that of `O=C(NC(Cc1cccnc1)C(=O)CCC(=O)N1CCC[C@H]1C(=O)O)c1ccccc1` (stereo partly drawn) [Example XI, 5-Benzamido-4-oxo-6-(3-pyridyl)hexanoyl-L-proline], 5.7 nM; in that of `CCCCCC(=O)NC(Cc1ccccc1)C(=O)CCC(=O)N1CCC[C@H]1C(=O)O` (stereo partly drawn) [Example XIX, 5-n-Hexanoylamino-4-oxo-6-phenylhexanoyl-L-proline], 47 nM. Same read-out and setting: the value for `CCCCOC(=O)NC(Cc1ccccc1)C(=O)CCC(=O)N1CCC[C@H]1C(=O)O` (stereo partly drawn) [Example XV, 5-n-Butyloxycarbonylamino-4-oxo-6-phenylhexanoyl-L-proline] was 210 nM; that for `CCCCOC(=O)NC(Cc1ccccc1)C(=O)CC(C)C(=O)N1CCC[C@H]1C(=O)O` (stereo partly drawn) [Example XVII, 5-n-Butyloxycarbonylamino-4-oxo-2-methyl-6-phenylhexanoyl-L-proline] was 33 nM; that for `O=C(NC(Cc1ccccc1)C(=O)CCC(=O)N1CCC[C@H]1C(=O)O)c1ccncc1` (stereo partly drawn) [IV, 5-(4-Pyridyl)carbonylamino-4-oxo-6-phenylhexanoyl-L-proline] was 20 nM. On to `O=C(CCC(=O)N1CCC[C@H]1C(=O)O)C(Cc1ccccc1)NC(=O)C1CCCO1` (stereo partly drawn) [VI, 5-(2-Tetrahydrofuroylamino)-4-oxo-6-phenylhexanoyl-L-proline], for which the IC50 came to 20 nM. Still for that read-out and setting: in the case of `Cc1ccccc1C(=O)NC(Cc1ccccc1)C(=O)CCC(=O)N1CCC[C@H]1C(=O)O` (stereo partly drawn) [VII, 5-O-Toluoylamino-4-oxo-6-phenylhexanoyl-L-proline] it was 46 nM; in that of `COc1ccc(CC(NC(=O)c2ccccc2)C(=O)CCC(=O)N2CCC[C@H]2C(=O)O)cc1OC` (stereo partly drawn) [VIII, 5-Benzamido-4-oxo-6-(3,4-dimethoxyphenyl)hexanoyl-L-proline], 1.4 nM; in that of `CC(C)C(CC(=O)C(Cc1ccccc1)NC(=O)c1ccccc1)C(=O)N1CCC[C@H]1C(=O)O` (stereo partly drawn) [XIV, 5-Benzamido-4-oxo-2-isopropyl-6-phenylhexanoyl-L-proline], 230 nM. `CC(=O)NC(Cc1ccccc1)C(=O)CCC(=O)N1CCC[C@H]1C(=O)O` (stereo partly drawn) [XVIII, 5-Acetylamino-4-oxo-6-phenylhexanoyl-L-proline] registered an IC50 of 330 nM.

For the compound `CCCCCCCC(=O)NC(Cc1ccccc1)C(=O)CCC(=O)N1CCC[C@H]1C(=O)O` (stereo partly drawn) [XX, 5-n-Octanoylamino-4-oxo-6-phenylhexanoyl-L-proline], the midpoint of inhibition, the IC50, lay at 650 nM. `CCCCCCCCCC(=O)NC(Cc1ccccc1)C(=O)CCC(=O)N1CCC[C@H]1C(=O)O` (stereo partly drawn) [XXI, 5-n-Decanoylamino-4-oxo-6-phenylhexanoyl-L-proline] returned an IC50 of 6500 nM.
